Data taken from EP3046573B1, “AMYLIN ANALOGUES” (Zealand Pharma A/S, priority 2013, dated 2015).
Numbered stars: 1 amine (or outer) side, 2 acyl side, 3 side chain; on linkers, the order of the positions; unused ones are H or OH. Bridge positions count the residues as written; N and C are the ends. Square brackets hold non-standard residues; d marks the D form. Peptide text beside a SMILES is read from it. * marks the point of attachment. C20 diacid = O=C(O)CCCCCCCCCCCCCCCCCCC(=O)*; γGlu = O=C(O)[C@H](CCC(=O)[*:2])N[*:1]; NMeI = CC[C@H](C)[C@H](NC)C(=O)O; Sar = CNCC(=O)O

Legend:
[1] = Solubility assessment (turbidity absorbance at 325 nm); type: physicochemical; conditions: stock 2 mg/ml diluted 1:1, ambient temperature (typically 25°C), n=1; for Solubility, Acetate buffer pH 4: 100 mM acetate buffer pH 4.0; for Solubility, Acetate buffer pH 5: 100 mM acetate buffer pH 5.0; for Solubility, Histidine buffer pH 6: 100 mM histidine buffer pH 6.0; for Solubility, Histidine buffer pH 7: 100 mM histidine buffer pH 7.0; for Solubility, Phosphate buffer pH 6: 100 mM phosphate buffer pH 6.0; for Solubility, Phosphate buffer pH 7: 100 mM phosphate buffer pH 7.0; for Solubility, Phosphate buffer pH 7.5: 100 mM phosphate buffer pH7.5
How it was run: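 Turbidimetric screen across pH 4.0–7.5 in 100 mM acetate, histidine and phosphate buffers. A 2 mg/ml peptide stock (pH 2.5) was diluted 1:1 into each, then A325 measured at ambient temperature; values ≤ 0.02 AU denoted solubility of 1 mg/ml or more.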

[2] = target: T1, human amylin receptor 3 (hAMYR3) consisting of hCTR2 co-expressed with human Receptor Activity Modifying Protein 3 (hRAMP3) (Homo sapiens, UniProt O60896+P30988); experiment: hAMYR3 assay: induction of cAMP (AlphaScreen cAMP Assay kit) in COS7 cells expressing hAMYR3; type: cell-based; conditions: cAMP induction in COS7 cells expressing hAMYR3; average of a minimum of 3 determinations; read-out: hAMY R3 EC50
T1 construct: expressed in transfected cells
T1 sequence (P30988 25-474): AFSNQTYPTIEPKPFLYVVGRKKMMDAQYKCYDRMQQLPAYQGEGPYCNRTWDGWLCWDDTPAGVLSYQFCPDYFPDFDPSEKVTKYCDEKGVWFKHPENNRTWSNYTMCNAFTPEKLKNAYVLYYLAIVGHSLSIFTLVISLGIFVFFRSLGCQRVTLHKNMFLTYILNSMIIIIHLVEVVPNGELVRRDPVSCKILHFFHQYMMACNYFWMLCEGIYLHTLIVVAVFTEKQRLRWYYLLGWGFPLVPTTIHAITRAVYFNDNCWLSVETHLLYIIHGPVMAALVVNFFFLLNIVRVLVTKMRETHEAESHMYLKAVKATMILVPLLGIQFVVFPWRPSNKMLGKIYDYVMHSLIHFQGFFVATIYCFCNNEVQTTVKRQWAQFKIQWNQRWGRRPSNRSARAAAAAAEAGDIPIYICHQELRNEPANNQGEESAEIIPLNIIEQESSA
T1 sequence (O60896 24-148 partner): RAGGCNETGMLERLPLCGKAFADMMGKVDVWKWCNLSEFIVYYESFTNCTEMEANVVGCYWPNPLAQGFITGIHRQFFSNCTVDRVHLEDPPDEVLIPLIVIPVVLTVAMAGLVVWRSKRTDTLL
How it was run: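 cAMP accumulation read by AlphaScreen in lysates of RAMP-naive COS7 cells stably transfected with hCTR2 plus hRAMP3. Cells exposed to peptide dilutions for 15 min, 37° C, with 100 µM IBMX; 4PL fitting gave EC50 and efficacy relative to pramlintide.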

[3] = target: T2, human calcitonin receptor (hCTR2) (Homo sapiens, UniProt P30988); experiment: hCTR2 assay: induction of cAMP (AlphaScreen cAMP Assay kit) in COS7 cells expressing hCTR2; type: cell-based; conditions: cAMP induction in COS7 cells expressing hCTR2; average of a minimum of 3 determinations; read-out: hCTR2 EC50
T2 construct: expressed in transfected cells
T2 sequence (P30988 25-474): T1 sequence (P30988 25-474)
How it was run: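 Cells were seeded one day ahead, washed, then exposed to rising peptide concentrations for 15 min at 37° C in the presence of 100 µM IBMX. After lysis for 10 min at room temperature, cAMP was quantified by AlphaScreen and EC50 values derived by 4PL fitting.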

Solubility, Acetate buffer pH 4 [1]	Solubility, Acetate buffer pH 5 [1]	Solubility, Histidine buffer pH 6 [1]	Solubility, Histidine buffer pH 7 [1]	Solubility, Phosphate buffer pH 6 [1]	Solubility, Phosphate buffer pH 7 [1]	Solubility, Phosphate buffer pH 7.5 [1]	EC50 [2]	EC50 [3]	SMILES
SS (SS indicates solubility ≥ 1mg/ml)	SS (SS indicates solubility ≥ 1mg/ml)	SS (SS indicates solubility ≥ 1mg/ml)	SS (SS indicates solubility ≥ 1mg/ml)	SS (SS indicates solubility ≥ 1mg/ml)	SS (SS indicates solubility ≥ 1mg/ml)	SS (SS indicates solubility ≥ 1mg/ml)	0.29 nM	0.12 nM	CC[C@H](C)[C@@H](C(=O)N[C@@H](CC(C)C)C(=O)N[C@@H](CO)C(=O)N[C@@H](CO)C(=O)N[C@H](C(=O)N[C@@H](CCC(=O)O)C(=O)N[C@H](C(=O)NCC(=O)N[C@@H](CO)C(=O)N[C@@H](CCC(=O)O)C(=O)N[C@H](C(=O)N1CCC[C@H]1C(N)=O)[C@@H](C)O)C(C)C)[C@@H](C)O)N(C)C(=O)[C@H](C)NC(=O)CN(C)C(=O)[C@H](Cc1ccccc1)NC(=O)[C@H](CO)NC(=O)[C@H](CO)NC(=O)[C@H](CO)NC(=O)[C@H](CO)NC(=O)[C@H](CCCNC(=N)N)NC(=O)[C@H](Cc1c[nH]cn1)NC(=O)[C@H](CC(C)C)NC(=O)[C@H](Cc1ccccc1)NC(=O)[C@H](CCC(=O)O)NC(=O)[C@H](C)NC(=O)[C@H](CC(C)C)NC(=O)[C@H](CCCNC(=N)N)NC(=O)[C@H](CCC(=O)O)NC(=O)[C@@H](NC(=O)[C@H](C)NC(=O)[C@@H]1CSSC[C@H](NC(=O)[C@H](CCCNC(=N)N)NC(=O)CC[C@H](NC(=O)CCCCCCCCCCCCCCCCCCC(=O)O)C(=O)O)C(=O)N2CCC[C@H]2C(=O)N[C@@H]([C@@H](C)O)C(=O)N[C@@H](C)C(=O)N[C@@H]([C@@H](C)O)C(=O)N1)[C@@H](C)O [Compound 136, [19CD]-isoGlu-RC()PTATC()ATERLAEFLHRSSSSF-Gly(Me)-A-Ile(Me)-LSSTEVGSETP-NH2] ({C20 diacid-γGlu}-RCPTATCATERLAEFLHRSSSSF[Sar]A[NMeI]LSSTEVGSETP-NH2; disulfide 2-7)
SS (SS indicates solubility ≥ 1mg/ml)	SS (SS indicates solubility ≥ 1mg/ml)	SS (SS indicates solubility ≥ 1mg/ml)	SS (SS indicates solubility ≥ 1mg/ml)	SS (SS indicates solubility ≥ 1mg/ml)	SS (SS indicates solubility ≥ 1mg/ml)	SS (SS indicates solubility ≥ 1mg/ml)	0.86 nM	0.24 nM	CC[C@H](C)[C@@H](C(=O)N[C@@H](CC(C)C)C(=O)N[C@@H](CO)C(=O)N[C@@H](CO)C(=O)N[C@H](C(=O)N[C@@H](CCC(=O)O)C(=O)N[C@H](C(=O)NCC(=O)N[C@@H](CO)C(=O)N[C@@H](CCC(=O)O)C(=O)N[C@H](C(=O)N1CCC[C@H]1C(N)=O)[C@@H](C)O)C(C)C)[C@@H](C)O)N(C)C(=O)[C@H](C)NC(=O)CN(C)C(=O)[C@H](Cc1ccccc1)NC(=O)[C@H](CO)NC(=O)[C@H](CO)NC(=O)[C@H](CO)NC(=O)[C@H](CO)NC(=O)[C@H](CCCNC(=N)N)NC(=O)[C@H](Cc1c[nH]cn1)NC(=O)[C@H](CC(C)C)NC(=O)[C@H](Cc1ccccc1)NC(=O)[C@H](CCC(=O)O)NC(=O)[C@H](C)NC(=O)[C@H](CC(C)C)NC(=O)[C@H](CCCNC(=N)N)NC(=O)[C@H](CCC(=O)O)NC(=O)[C@@H](NC(=O)[C@H](C)NC(=O)[C@@H]1CSSC[C@H](NC(=O)[C@H](CCCNC(=N)N)NC(=O)CC[C@H](NC(=O)CCCCCCCCCCCCCCCCCCC(=O)O)C(=O)O)C(=O)N[C@@H](CC(=O)O)C(=O)N[C@@H]([C@@H](C)O)C(=O)N[C@@H](C)C(=O)N[C@@H]([C@@H](C)O)C(=O)N1)[C@@H](C)O [Compound 137, [19CD]-isoGlu-RC()DTATC()ATERLAEFLHRSSSSF-Gly(Me)-A-Ile(Me)-LSSTEVGSETP-NH2] ({C20 diacid-γGlu}-RCDTATCATERLAEFLHRSSSSF[Sar]A[NMeI]LSSTEVGSETP-NH2; disulfide 2-7)
SS (SS indicates solubility ≥ 1mg/ml)	SS (SS indicates solubility ≥ 1mg/ml)	SS (SS indicates solubility ≥ 1mg/ml)	SS (SS indicates solubility ≥ 1mg/ml)	SS (SS indicates solubility ≥ 1mg/ml)	SS (SS indicates solubility ≥ 1mg/ml)	SS (SS indicates solubility ≥ 1mg/ml)	0.34 nM	0.23 nM	CC[C@H](C)[C@@H](C(=O)N[C@@H](CC(C)C)C(=O)N[C@@H](CO)C(=O)N[C@@H](CO)C(=O)N[C@H](C(=O)N[C@@H](CCC(=O)O)C(=O)N[C@H](C(=O)NCC(=O)N[C@@H](CO)C(=O)N[C@@H](CCC(=O)O)C(=O)N[C@H](C(=O)N1CCC[C@H]1C(N)=O)[C@@H](C)O)C(C)C)[C@@H](C)O)N(C)C(=O)[C@H](C)NC(=O)CN(C)C(=O)[C@H](Cc1ccccc1)NC(=O)[C@H](CO)NC(=O)[C@H](CO)NC(=O)[C@H](CO)NC(=O)[C@H](CO)NC(=O)[C@H](CCCNC(=N)N)NC(=O)[C@H](Cc1c[nH]cn1)NC(=O)[C@H](CC(C)C)NC(=O)[C@H](Cc1ccccc1)NC(=O)[C@H](CCC(=O)O)NC(=O)[C@H](C)NC(=O)[C@H](CC(C)C)NC(=O)[C@H](CCCNC(=N)N)NC(=O)[C@H](CO)NC(=O)[C@@H](NC(=O)[C@H](C)NC(=O)[C@@H]1CSSC[C@H](NC(=O)[C@H](CCCNC(=N)N)NC(=O)CC[C@H](NC(=O)CCCCCCCCCCCCCCCCCCC(=O)O)C(=O)O)C(=O)N[C@@H](CC(=O)O)C(=O)N[C@@H]([C@@H](C)O)C(=O)N[C@@H](C)C(=O)N[C@@H]([C@@H](C)O)C(=O)N1)[C@@H](C)O [Compound 138, [19CD]-isoGlu-RC()DTATC()ATSRLAEFLHRSSSSF-Gly(Me)-A-Ile(Me)-LSSTEVGSETP-NH2] ({C20 diacid-γGlu}-RCDTATCATSRLAEFLHRSSSSF[Sar]A[NMeI]LSSTEVGSETP-NH2; disulfide 2-7)
SS (SS indicates solubility ≥ 1mg/ml)	SS (SS indicates solubility ≥ 1mg/ml)	SS (SS indicates solubility ≥ 1mg/ml)	SS (SS indicates solubility ≥ 1mg/ml)	SS (SS indicates solubility ≥ 1mg/ml)	SS (SS indicates solubility ≥ 1mg/ml)	SS (SS indicates solubility ≥ 1mg/ml)	0.35 nM	0.15 nM	CC[C@H](C)[C@@H](C(=O)N[C@@H](CC(C)C)C(=O)N[C@@H](CO)C(=O)N[C@@H](CO)C(=O)N[C@H](C(=O)N[C@@H](CCC(=O)O)C(=O)N[C@H](C(=O)NCC(=O)N[C@@H](CO)C(=O)N[C@@H](CCC(=O)O)C(=O)N[C@H](C(=O)N1CCC[C@H]1C(N)=O)[C@@H](C)O)C(C)C)[C@@H](C)O)N(C)C(=O)[C@H](C)NC(=O)CN(C)C(=O)[C@H](Cc1ccccc1)NC(=O)[C@H](CO)NC(=O)[C@H](CO)NC(=O)[C@H](CO)NC(=O)[C@H](CO)NC(=O)[C@H](CCCNC(=N)N)NC(=O)[C@H](Cc1c[nH]cn1)NC(=O)[C@H](CC(C)C)NC(=O)[C@H](Cc1ccccc1)NC(=O)[C@H](CCC(=O)O)NC(=O)[C@H](C)NC(=O)[C@H](CC(C)C)NC(=O)[C@H](CCCNC(=N)N)NC(=O)[C@H](CO)NC(=O)[C@@H](NC(=O)[C@H](C)NC(=O)[C@@H]1CSSC[C@H](NC(=O)[C@H](CCCNC(=N)N)NC(=O)CC[C@H](NC(=O)CCCCCCCCCCCCCCCCCCC(=O)O)C(=O)O)C(=O)N[C@@H](CCC(=O)O)C(=O)N[C@@H]([C@@H](C)O)C(=O)N[C@@H](C)C(=O)N[C@@H]([C@@H](C)O)C(=O)N1)[C@@H](C)O [Compound 139, [19CD]-isoGlu-RC()ETATC()ATSRLAEFLHRSSSSF-Gly(Me)-A-Ile(Me)-LSSTEVGSETP-NH2] ({C20 diacid-γGlu}-RCETATCATSRLAEFLHRSSSSF[Sar]A[NMeI]LSSTEVGSETP-NH2; disulfide 2-7)
